# e = 2'-O-(2-methoxyethyl) (MOE); d = 2'-deoxy (DNA)
# System: Drosha mRNA
# Assay: Antisense activity by RT-qPCR, Drosha, A431 cells
# Assay type: cell-based, Human
# Method: A431 cells were grown at 10,000 cells per well and pre-treated with a variety of growth factors to determine if the addition of exogenous growth factors affects antisense activity or uptake of modified antisense oligonucleotides in a cell. The growth factors used were EGF, insulin growth factor (IGF), transforming growth factor (TGF), […] (VEGF), hepatocyte growth factor (HGF), platelet growth factor (PGF) and fibroblasts growth factor (FGF). To test antisense activity, cells were treated for 4 hours with a growth factor or vehicle alone, and then treated with compound no. 25690 (complementary to Drosha), compound no. 395254 (complementary to Malat1), or vehicle alone. RNA was isolated from the cells and Drosha or Malat1 RNA levels were measured by RT-qPCR. Human primer probe set 13816 (forward sequence […], designated herein as SEQ ID NO: 3; reverse sequence […], designated herein as SEQ ID NO: 4; probe sequence […], designated herein as SEQ ID NO: 5) was used to measure Drosha mRNA levels and primer probe set RTS2736 (forward sequence […], designated herein as SEQ ID NO: 6; reverse sequence […], designated herein as SEQ ID NO: 7; probe sequence TGCCACATCGCCACCCCGT, designated herein as SEQ ID NO: 8) was used to measure Malat1 RNA levels. Drosha and Malat1 RNA levels were normalized to total RNA content, as measured by RIBOGREEN®. Results are presented in the tables below as normalized RNA levels, relative to untreated control cells.
# A431 cells were treated with EGF or TGF at 200 ng/mL in the presence or absence of 1 μM of the EGFR tyrosine kinase inhibitor PD174265. The cells were then treated with compound no. 25690 or compound no. 395254 as in Example 8. Total RNA was isolated and analyzed by RT-qPCR, as in Example 8.
# Following siRNA treatment, cells were treated with compound no. 25690 or compound no. 395254 in the presence or absence of EGF. 16 hours after treatment with a PS-ASO with or without EGF, cells were harvested, and RNA levels were analyzed via RT-qPCR as in Example 8.
sequence,measurement,setting,value
"AGGAAGGAAGCTGGCGATCT (sugars from the 5' end e5 d10 e5, all phosphorothioate, methylation of C not given here) [compound 25690]",Drosha mRNA (% Control),"19.5 nM, Control",100.0 % Control
same,Drosha mRNA (% Control),"19.5 nM, EGF",100.0 % Control
same,Drosha mRNA (% Control),"19.5 nM, TGF",100.0 % Control
same,Drosha mRNA (% Control),"39 nM, Control",104.3 % Control
same,Drosha mRNA (% Control),"39 nM, EGF",98.0 % Control
same,Drosha mRNA (% Control),"39 nM, TGF",95.1 % Control
same,Drosha mRNA (% Control),"78 nM, Control",100.3 % Control
same,Drosha mRNA (% Control),"78 nM, EGF",98.0 % Control
same,Drosha mRNA (% Control),"78 nM, TGF",80.2 % Control
same,Drosha mRNA (% Control),"97.7 nM, Control",100.0 % Control
same,Drosha mRNA (% Control),"97.7 nM, Control Luciferase siRNA",100.0 % Control
same,Drosha mRNA (% Control),"97.7 nM, Control Luciferase siRNA, Table 26",100.0 % Control
same,Drosha mRNA (% Control),"97.7 nM, Control luciferase + EGF",100.0 % Control
same,Drosha mRNA (% Control),"97.7 nM, Control, Table 20",100.0 % Control
same,Drosha mRNA (% Control),"97.7 nM, EGF",100.0 % Control
same,Drosha mRNA (% Control),"97.7 nM, EGF+PD174265",100.0 % Control
same,Drosha mRNA (% Control),"97.7 nM, EGFR siRNA-1",100.0 % Control
same,Drosha mRNA (% Control),"97.7 nM, EGFR siRNA-2",100.0 % Control
same,Drosha mRNA (% Control),"97.7 nM, EGFR siRNA-2 + EGF",100.0 % Control
same,Drosha mRNA (% Control),"97.7 nM, EGFR siRNA-2, Table 26",100.0 % Control
same,Drosha mRNA (% Control),"97.7 nM, TGF",100.0 % Control
same,Drosha mRNA (% Control),"97.7 nM, TGF+PD174265",100.0 % Control
same,Drosha mRNA (% Control),"156.25 nM, Control",103.8 % Control
same,Drosha mRNA (% Control),"156.25 nM, EGF",70.7 % Control
same,Drosha mRNA (% Control),"156.25 nM, TGF",64.6 % Control
same,Drosha mRNA (% Control),"195 nM, Control",110.0 % Control
same,Drosha mRNA (% Control),"195 nM, Control Luciferase siRNA",81.4 % Control
same,Drosha mRNA (% Control),"195 nM, Control Luciferase siRNA, Table 26",99.2 % Control
same,Drosha mRNA (% Control),"195 nM, Control luciferase + EGF",110.2 % Control
same,Drosha mRNA (% Control),"195 nM, Control, Table 20",110.0 % Control
same,Drosha mRNA (% Control),"195 nM, EGF",98.2 % Control
same,Drosha mRNA (% Control),"195 nM, EGF+PD174265",102.4 % Control
same,Drosha mRNA (% Control),"195 nM, EGFR siRNA-1",103.0 % Control
same,Drosha mRNA (% Control),"195 nM, EGFR siRNA-2",88.0 % Control
same,Drosha mRNA (% Control),"195 nM, EGFR siRNA-2 + EGF",107.2 % Control
same,Drosha mRNA (% Control),"195 nM, EGFR siRNA-2, Table 26",105.2 % Control
same,Drosha mRNA (% Control),"195 nM, TGF",95.2 % Control
same,Drosha mRNA (% Control),"195 nM, TGF+PD174265",108.0 % Control
same,Drosha mRNA (% Control),"312.5 nM, Control",92.7 % Control
same,Drosha mRNA (% Control),"312.5 nM, EGF",72.8 % Control
same,Drosha mRNA (% Control),"312.5 nM, TGF",61.1 % Control
same,Drosha mRNA (% Control),"391 nM, Control",99.7 % Control
same,Drosha mRNA (% Control),"391 nM, Control Luciferase siRNA",67.0 % Control
same,Drosha mRNA (% Control),"391 nM, Control Luciferase siRNA, Table 26",100.0 % Control
same,Drosha mRNA (% Control),"391 nM, Control luciferase + EGF",100.0 % Control
same,Drosha mRNA (% Control),"391 nM, Control, Table 20",99.3 % Control
same,Drosha mRNA (% Control),"391 nM, EGF",89.4 % Control
same,Drosha mRNA (% Control),"391 nM, EGF+PD174265",103.3 % Control
same,Drosha mRNA (% Control),"391 nM, EGFR siRNA-1",78.9 % Control
same,Drosha mRNA (% Control),"391 nM, EGFR siRNA-2",83.1 % Control
same,Drosha mRNA (% Control),"391 nM, EGFR siRNA-2, Table 26",100.0 % Control
same,Drosha mRNA (% Control),"391 nM, TGF",85.2 % Control
same,Drosha mRNA (% Control),"391 nM, TGF+PD174265",91.2 % Control
same,Drosha mRNA (% Control),"625 nM, Control",90.9 % Control
same,Drosha mRNA (% Control),"625 nM, EGF",57.2 % Control
same,Drosha mRNA (% Control),"625 nM, TGF",50.8 % Control
same,Drosha mRNA (% Control),"781 nM, Control",88.4 % Control
same,Drosha mRNA (% Control),"781 nM, Control Luciferase siRNA",56.6 % Control
same,Drosha mRNA (% Control),"781 nM, Control Luciferase siRNA, Table 26",77.5 % Control
same,Drosha mRNA (% Control),"781 nM, Control luciferase + EGF",60.8 % Control
same,Drosha mRNA (% Control),"781 nM, Control, Table 20",87.2 % Control
same,Drosha mRNA (% Control),"781 nM, EGF",81.4 % Control
same,Drosha mRNA (% Control),"781 nM, EGF+PD174265",83.6 % Control
same,Drosha mRNA (% Control),"781 nM, EGFR siRNA-1",62.3 % Control
same,Drosha mRNA (% Control),"781 nM, EGFR siRNA-2",64.8 % Control
same,Drosha mRNA (% Control),"781 nM, EGFR siRNA-2 + EGF",98.4 % Control
same,Drosha mRNA (% Control),"781 nM, EGFR siRNA-2, Table 26",89.8 % Control
same,Drosha mRNA (% Control),"781 nM, TGF",67.2 % Control
same,Drosha mRNA (% Control),"781 nM, TGF+PD174265",87.2 % Control
same,Drosha mRNA (% Control),"1250 nM, Control",75.7 % Control
same,Drosha mRNA (% Control),"1250 nM, EGF",52.8 % Control
same,Drosha mRNA (% Control),"1250 nM, TGF",43.4 % Control
same,Drosha mRNA (% Control),"1563 nM, Control",83.2 % Control
same,Drosha mRNA (% Control),"1563 nM, Control Luciferase siRNA",49.2 % Control
same,Drosha mRNA (% Control),"1563 nM, Control Luciferase siRNA, Table 26",70.2 % Control
same,Drosha mRNA (% Control),"1563 nM, Control luciferase + EGF",57.6 % Control
same,Drosha mRNA (% Control),"1563 nM, Control, Table 20",76.3 % Control
same,Drosha mRNA (% Control),"1563 nM, EGF",74.7 % Control
same,Drosha mRNA (% Control),"1563 nM, EGF+PD174265",68.9 % Control
same,Drosha mRNA (% Control),"1563 nM, EGFR siRNA-1",56.0 % Control
same,Drosha mRNA (% Control),"1563 nM, EGFR siRNA-2",61.4 % Control
same,Drosha mRNA (% Control),"1563 nM, EGFR siRNA-2 + EGF",79.4 % Control
same,Drosha mRNA (% Control),"1563 nM, EGFR siRNA-2, Table 26",80.3 % Control
same,Drosha mRNA (% Control),"1563 nM, TGF",65.9 % Control
same,Drosha mRNA (% Control),"1563 nM, TGF+PD174265",78.7 % Control
same,Drosha mRNA (% Control),"2500 nM, Control",63.6 % Control
same,Drosha mRNA (% Control),"2500 nM, EGF",42.8 % Control
same,Drosha mRNA (% Control),"2500 nM, TGF",40.1 % Control
same,Drosha mRNA (% Control),"3125 nM, Control",66.6 % Control
same,Drosha mRNA (% Control),"3125 nM, Control Luciferase siRNA",40.7 % Control
same,Drosha mRNA (% Control),"3125 nM, Control Luciferase siRNA, Table 26",61.6 % Control
same,Drosha mRNA (% Control),"3125 nM, Control luciferase + EGF",40.8 % Control
same,Drosha mRNA (% Control),"3125 nM, Control, Table 20",67.2 % Control
same,Drosha mRNA (% Control),"3125 nM, EGF",55.9 % Control
same,Drosha mRNA (% Control),"3125 nM, EGF+PD174265",62.7 % Control
same,Drosha mRNA (% Control),"3125 nM, EGFR siRNA-1",51.4 % Control
same,Drosha mRNA (% Control),"3125 nM, EGFR siRNA-2",54.6 % Control
same,Drosha mRNA (% Control),"3125 nM, EGFR siRNA-2 + EGF",75.4 % Control
same,Drosha mRNA (% Control),"3125 nM, EGFR siRNA-2, Table 26",70.6 % Control
same,Drosha mRNA (% Control),"3125 nM, TGF",47.2 % Control
same,Drosha mRNA (% Control),"3125 nM, TGF+PD174265",64.2 % Control
same,Drosha mRNA (% Control),"5000 nM, Control",47.6 % Control
same,Drosha mRNA (% Control),"5000 nM, EGF",33.0 % Control
same,Drosha mRNA (% Control),"5000 nM, TGF",31.9 % Control
